Data on two molecules can be found in patent publication US20100256214A1, “EPH RECEPTOR LIGANDS AND METHODS OF USE” (Burnham Institute for Medical Research, priority 2009, published 2010).

Where two headings read alike, the source gives them in different places.

Assay [1] concerns the target EphA4 (Homo sapiens, UniProt P54764). The assay can be described thus: ELISA, ephrin-A5 AP binding to immobilized EphA4 Fc. The following applies: for IC50: read-out: IC50 for inhibition of ephrin-A5 AP binding to EphA4. On the procedure:
ELISA Assays and K, Determination—Protein A-coated wells (Pierce Biotecnology, Rockford, Ill.) were used to immobilize ephrin Fc fusion proteins (R&D Systems, Minneapolis, Minn.). Compounds at different concentrations were incubated with EphA4 AP (Cheng and Flanagan, (1994) Cell 79(1), 157-168) or EphA2 AP (Koolpe et al. (2002) J Biol Chem 277(49), 46974-46979) for 3 hours. Alternatively, Eph receptor Fc fusion proteins were immobilized on protein A-coated wells and ephrin-A5 AP (Menzel et al. (2001) Developmental Biology 230(1), 74-88) or ephrin-B2 AP (GeneHunter, Nashville, Tenn.) were added with the compounds. The amount of bound AP-fusion protein was quantified using pNPP as the substrate. Alkaline phosphatase activity from wells with Fc only was subtracted as background. To confirm that the binding of the compounds to EphA4 was reversible, the compounds were removed and the wells were incubated in binding buffer for 3 hours before washing and incubating with ephrin AP fusion proteins. Under these conditions, no inhibition of ephrin binding was observed indicating the reversible binding of the compounds.
To calculate the inhibition constant (KO values, the binding of ephrin-A5 AP to EphA4 Fc immobilized on protein A-coated wells was measured in the absence and in the presence of the compounds at different concentrations. Each data set was fitted to the Michaelis-Menten equation: B=Bmax [S]/(KD+[S]), where [S] is the concentration of ephrin AP fusion protein and KD is the dissociation constant observed in the absence or in the presence of the compound, using non linear regression and the program GraphPad (Prism). To evaluate whether the inhibition is competitive, noncompetitive or uncompetitive the KD and Bmax values were determined at different compound concentrations. The Ki was obtained from the linear regression plot of KD/Bmax as a function of the concentration of the inhibitor according to: KD/Bmax=(KD[S])/(Ki·Bmax)+KD/Bmax. Alternatively, Ki values were obtained from the dose response curves, using the Cheng-Prusoff equation: Ki=IC50/(1+[S]/KD) (XX38, Cheng, Y., and Prusoff, W. H. (1973) Biochemical pharmacology 22(23), 3099-3108). Ephrin-A5 AP concentration were calculated from alkaline phosphatase activity (Flanagan et al. (2000) Methods in Enzymology. 327, 19-35).
(In general: In an ELISA, binding on a coated surface is turned into a signal by an enzyme label.)

The target of assay [2] is EphA2 (Homo sapiens, UniProt P29317). The assay can be described thus: ELISA, EphA2-ephrin-A5 binding. The following applies: assuming competitive inhibition; read-out: Ki for inhibition of EphA2-ephrin-A5 binding (Cheng-Prusoff). On the procedure: ELISA Assays and K, Determination—Protein A-coated wells (Pierce Biotecnology, Rockford, Ill.) were used to immobilize ephrin Fc fusion proteins (R&D Systems, Minneapolis, Minn.). Compounds at different concentrations were incubated with EphA4 AP (Cheng and Flanagan, (1994) Cell 79(1), 157-168) or EphA2 AP (Koolpe et al. (2002) J Biol Chem 277(49), 46974-46979) for 3 hours. Alternatively, Eph receptor Fc fusion proteins were immobilized on protein A-coated wells and ephrin-A5 AP (Menzel et al. (2001) Developmental Biology 230(1), 74-88) or ephrin-B2 AP (GeneHunter, Nashville, Tenn.) were added with the compounds. The amount of bound AP-fusion protein was quantified using pNPP as the substrate. […]
To calculate the inhibition constant (KO values, the binding of ephrin-A5 AP to EphA4 Fc immobilized on protein A-coated wells was measured in the absence and in the presence of the compounds at different concentrations. Each data set was fitted to the Michaelis-Menten equation: B=Bmax [S]/(KD+[S]), where [S] is the concentration of ephrin AP fusion protein and KD is the dissociation constant observed in the absence or in the presence of the compound, using non linear regression and the program GraphPad (Prism). To evaluate whether the inhibition is competitive, noncompetitive or uncompetitive the KD and Bmax values were determined at different compound concentrations. […]

Assay [3] deals with EphB2. The assay can be described thus: EphB2 tyrosine phosphorylation in COS7 cells. Format: cell-based. The following applies: COS7 cells stimulated with ephrin-B2 Fc.
Assay [4] addresses T1, EphA4 ligand-binding domain (Homo sapiens, UniProt P54764, C204A).
T1 construct: His-tagged fusion partner of modified pET32a (N, cleaved yes); made in house; host or cells: E. coli Rosetta-gami (DE3)
The assay can be described thus: Isothermal titration calorimetry with EphA4 ligand-binding domain. The following applies: ITC; for Ka / Kb: 10 mM phosphate buffer pH 6.3, 25° C. As for the experimental part: The free Cys176 in this extra tail was mutated to Ala by use of the site-directed mutagenesis kit (Stratagene) to avoid the formation of non-native disulfide bridges.
Titrations were conducted in 10 mM phosphate buffer (pH 6.3) at 25° C. […] The powders of the two compounds were weighted and then dissolved in 10 mM phosphate buffer with the final pH values adjusted to 6.3. The EphA4 receptor at a concentration of 70 μM was placed in a 1.8 ml sample cell while the compounds at a concentration of 2 mM were loaded into a 300 μL syringe. The samples were degassed for 15 min to remove bubbles before the titrations were initiated. Control experiments with the same parameter settings were also performed for the two compounds without EphA4, to subtract the effects due to sample dilution. To obtain thermodynamic binding parameters, the titration data after subtracting the values obtained from the control experiments were fit to a single binding site model using the built-in software ORIGIN version 5.0 (Microcal Software Inc.).
(In general: Isothermal titration calorimetry measures the heat released or taken up as one component is titrated into another.)

For assay [5], the system named is alkaline phosphatase. The assay can be described thus: Control: alkaline phosphatase activity in solution. It counts as biochemical.
[6] abbreviates: from ephrin-A5 AP binding curves at different compound concentrations, read-out: Ki, competitive inhibition of EphA4-ephrin-A5 binding.
Setting [7] is: from other inhibition curves using different ephrin concentrations, read-out: Ki calculated with the Cheng-Prusoff equation, EphA4-ephrin-A5.
[8] abbreviates: from the inhibition curves shown in FIG. 2, read-out: Ki calculated with the Cheng-Prusoff equation, EphA4-ephrin-A5.

T1 sequence (P54764 29-209 C204A): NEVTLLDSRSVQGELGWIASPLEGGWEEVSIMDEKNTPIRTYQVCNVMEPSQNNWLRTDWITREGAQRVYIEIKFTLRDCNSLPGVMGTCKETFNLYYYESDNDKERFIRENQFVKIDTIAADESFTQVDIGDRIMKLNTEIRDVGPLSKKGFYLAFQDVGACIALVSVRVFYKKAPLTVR
Sequence of EphA4 (P54764 20-547 limits assumed, species assumed): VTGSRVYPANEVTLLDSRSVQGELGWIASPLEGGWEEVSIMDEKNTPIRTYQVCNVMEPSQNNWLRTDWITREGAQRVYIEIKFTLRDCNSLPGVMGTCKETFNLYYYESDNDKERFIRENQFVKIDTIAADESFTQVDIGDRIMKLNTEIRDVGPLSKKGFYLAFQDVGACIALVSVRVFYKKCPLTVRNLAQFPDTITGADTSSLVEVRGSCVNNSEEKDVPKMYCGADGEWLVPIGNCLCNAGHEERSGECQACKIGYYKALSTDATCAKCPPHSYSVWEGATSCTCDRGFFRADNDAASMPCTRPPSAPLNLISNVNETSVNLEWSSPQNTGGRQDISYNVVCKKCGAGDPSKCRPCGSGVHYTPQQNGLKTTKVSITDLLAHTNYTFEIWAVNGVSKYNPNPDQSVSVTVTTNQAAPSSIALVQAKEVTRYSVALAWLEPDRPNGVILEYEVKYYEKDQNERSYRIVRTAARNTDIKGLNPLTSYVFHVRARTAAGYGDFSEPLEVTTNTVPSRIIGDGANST
Sequence of EphA2 (P29317 25-534 limits assumed, species assumed): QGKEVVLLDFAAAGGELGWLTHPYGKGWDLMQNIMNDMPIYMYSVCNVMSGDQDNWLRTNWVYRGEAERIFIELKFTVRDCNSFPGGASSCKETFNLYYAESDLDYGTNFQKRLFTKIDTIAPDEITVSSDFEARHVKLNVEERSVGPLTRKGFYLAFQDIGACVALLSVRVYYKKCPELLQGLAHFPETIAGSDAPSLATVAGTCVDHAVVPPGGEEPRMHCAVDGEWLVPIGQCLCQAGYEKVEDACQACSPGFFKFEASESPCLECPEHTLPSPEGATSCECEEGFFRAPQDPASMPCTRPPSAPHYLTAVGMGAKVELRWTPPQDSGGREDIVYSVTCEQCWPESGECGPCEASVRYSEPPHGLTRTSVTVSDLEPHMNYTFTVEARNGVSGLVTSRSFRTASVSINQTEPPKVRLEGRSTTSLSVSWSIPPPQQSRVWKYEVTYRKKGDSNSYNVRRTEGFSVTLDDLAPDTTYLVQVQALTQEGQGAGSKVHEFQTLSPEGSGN

The Ki is the equilibrium dissociation constant of an inhibitor or competing ligand from its target. One may read the IC50 as the midpoint of a concentration-inhibition curve. One may read the Kd as the equilibrium constant for the complex coming apart. A high value points to weaker binding. For `Cc1ccc(C)n1-c1ccc(O)c(C(=O)O)c1` [compound 2, 5-(2,5 dimethyl-pyrrol-1-yl)-2-hydroxy-benzoic acid], in assay [1], the “inhibition of EphA4-ephrin-A5 binding (in words)” value is listed as “inhibit” and the IC50 was 9 µM. In addition, the inhibition constant Ki in assay [1] (setting [6]) amounted to 7 µM. The Ki in assay [1] (setting [7]) was 6 to 8 µM. Moreover, in assay [1] (setting [8]), the inhibition constant (Ki) is 6 µM. In assay [2], the Ki was in the range of 10 to 13 µM. For the same molecule, the “phosphorylation of endogenous EphB2” value in assay [3] is reported as “did not inhibit”. In addition, in assay [4], the dissociation constant (Kd) stood at 26.4 µM; the Stoichiometry is recorded as 1.000 ± 0; the “ΔH, enthalpy change of binding” value is -237 cal; the ΔS is recorded as 20.15 cal/mol*K. In assay [4], the Ka turned out to be 37850 M⁻¹ and the Kb was 26.4 µM.

With `Cc1ccc(C)n1-c1ccc(C(=O)O)c(O)c1` [compound 1, 4-(2,5-dimethyl-pyrrol-1-yl)-2-hydroxy-benzoic acid], in assay [1], the “inhibition of EphA4-ephrin-A5 binding (in words)” value is “inhibit” and the IC50 came to 13 µM. Further, the “reversibility of binding to EphA4” value in assay [1] (compounds removed, 3 hours in binding buffer before ephrin AP) was “binds reversibly”. Besides, in assay [1] (setting [6]), the Ki was 8 µM. Besides, in assay [1] (setting [7]), the Ki was 6 to 10 µM. In addition, the inhibitory constant (Ki) in assay [1] (setting [8]) was 10 µM. Besides, the Ki in assay [2] lay in the range of 11 to 14 µM. Moreover, in assay [5], the “inhibition of alkaline phosphatase activity (control)” value was “does not inhibit”. The “phosphorylation of endogenous EphB2” value in assay [3] is “did not inhibit”. In assay [4], binding was characterised by a dissociation constant (Kd) of 20.4 µM; the Stoichiometry came to 1.000 ± 0; the “ΔH, enthalpy change of binding” value is −1,001 cal; the ΔS came to 18.11 cal/mol*K. Also, in assay [4], the Ka was found to be 48930 M⁻¹ and the Kb came out at 20.4 µM.
